Like-named read-outs stand apart in the source and are kept apart here.
Test system: HBV
Test: HBV inhibition assay in HepAD38 cells (extracellular HBV DNA by direct qPCR)
Assay type: cell-based, Hepatitis B virus
Details: 96 hours; for EC50: 8-point dose-response curve, read-out: HBV inh EC50
[1] = Hepatitis B virus, 0.1 μM, relative to non-treated reference, read-out: Anti HBV Activity (conc μM)
[2] = Hepatitis B virus, 0.05 μM, relative to non-treated reference, read-out: Anti HBV Activity (conc μM)
[3] = 0.1 μM, relative to non-treated reference

Compound	EC50 (Hepatitis B virus)	also measured
Cc1cc(NC(=O)c2c3c(cn2C)S(=O)(=O)NC2CN(C(=O)C45CC(CO4)C5)CC2CO3)ccc1F (stereo not drawn) [Example E150, Trans-2-(2-oxabicyclo[2.1.1]hexane-1-carbonyl)-N-(4-fluoro-3-methylphenyl)-7-methyl-2,3,3a,4,10,10a-hexahydro-1H,7H-dipyrrolo[3,4-b:3′,4′-f][1,4,5]oxathiazocine-8-carboxamide 5,5-dioxide]	< 1000 nM	–
CCOC(=O)N1C[C@H]2CS(=O)(=O)c3c(cn(C)c3C(=O)Nc3ccc(F)c(C)c3)S(=O)(=O)N[C@H]2C1 [Example E123, Ethyl (3aR,10aR)-8-((4-fluoro-3-methylphenyl)carbamoyl)-7-methyl-3a,4,10,10a-tetrahydro-1H,7H-dipyrrolo[3,4-c:3′,4′-g][1,6,2]dithiazocine-2(3H)-carboxylate 5,5,9,9-tetraoxide]	< 1000 nM	–
Cc1cc(NC(=O)c2c3c(cn2C)S(=O)(=O)NC2CN(C(=O)c4ncoc4C)CCC2CO3)ccc1F (racemic) [Example E139, Cis-N-(4-fluoro-3-methylphenyl)-2-methyl-7-(5-methyloxazole-4-carbonyl)-5,5a,6,7,8,9,9a,10-octahydro-2H-pyrido[3,4-f]pyrrolo[3,4-b][1,4,5]oxathiazocine-1-carboxamide 4,4-dioxide]	< 1000 nM	–
CCOC(=O)N1CC2COc3c(cn(C)c3C(=O)Nc3ccc(F)c(F)c3)S(=O)(=O)NC2C1 (racemic) [Example E13, Cis-Ethyl 8-((3,4-difluorophenyl)carbamoyl)-7-methyl-3a,4,10,10a-tetrahydro-1H,7H-dipyrrolo[3,4-b:3′,4′-f][1,4,5]oxathiazocine-2(3H)-carboxylate 5,5-dioxide]	< 1000 nM	inhibition at 0.1 µM [1]: > 50%
Cn1cc2c(c1C(=O)Nc1ccc(F)c(F)c1)OC[C@H]1CCC[C@@H]1NS2(=O)=O [Example E9, (5aS,8aS)—N-(3,4-difluorophenyl)-2-methyl-5a,6,7,8,8a,9-hexahydro-2H,5H-cyclopenta[f]pyrrolo[3,4-b][1,4,5]oxathiazocine-1-carboxamide 4,4-dioxide]	< 1000 nM	–
Cc1nnc(C(=O)N2CCC3NS(=O)(=O)c4cn(C)c(C(=O)Nc5ccc(F)c(C)c5)c4OCC3C2)o1 (racemic) [Example E125, Cis-N-(4-fluoro-3-methylphenyl)-2-methyl-8-(5-methyl-1,3,4-oxadiazole-2-carbonyl)-5,5a,6,7,8,9,9a,10-octahydro-2H-pyrido[4,3-f]pyrrolo[3,4-b][1,4,5]oxathiazocine-1-carboxamide 4,4-dioxide]	< 1000 nM	–
Cc1nnc(C(=O)N2CC[C@H]3COc4c(cn(C)c4C(=O)Nc4ccc(F)c(C)c4)S(=O)(=O)N[C@@H]3C2)o1 (relative stereo) [Example E140, Trans-N-(4-fluoro-3-methylphenyl)-2-methyl-7-(5-methyl-1,3,4-oxadiazole-2-carbonyl)-5,5a,6,7,8,9,9a,10-octahydro-2H-pyrido[3,4-f]pyrrolo[3,4-b][1,4,5]oxathiazocine-1-carboxamide 4,4-dioxide]	< 1000 nM	–
Cc1cc(NC(=O)c2c3c(cn2C)S(=O)(=O)NC2CCN(C(=O)c4ncoc4C)CC2CO3)ccc1F (racemic) [Example E134, Trans-N-(4-fluoro-3-methylphenyl)-2-methyl-8-(5-methyloxazole-4-carbonyl)-5,5a,6,7,8,9,9a,10-octahydro-2H-pyrido[4,3-f]pyrrolo[3,4-b][1,4,5]oxathiazocine-1-carboxamide 4,4-dioxide]	< 1000 nM	–
Cn1cc2c(c1C(=O)Nc1ccc(F)c(F)c1)OCC1CCCC1NS2(=O)=O (racemic) [Example E6, cis-N-(3,4-difluorophenyl)-2-methyl-5a,6,7,8,8a,9-hexahydro-2H,5H-cyclopenta[f]pyrrolo[3,4-b][1,4,5]oxathiazocine-1-carboxamide 4,4-dioxide]	< 1000 nM	inhibition at 0.5 µM (Hepatitis B virus, 0.5 μM, relative to non-treated reference, read-out: Anti HBV Activity (conc μM)): > 50%
Cc1noc(N2C[C@H]3COc4c(cn(C)c4C(=O)Nc4ccc(F)c(Cl)c4)S(=O)(=O)N[C@H]3C2)n1 [Example E116, (3aR,10aR)—N-(3-chloro-4-fluorophenyl)-7-methyl-2-(3-methyl-1,2,4-oxadiazol-5-yl)-2,3,3a,4,10,10a-hexahydro-1H,7H-dipyrrolo[3,4-b:3′,4′-f][1,4,5]oxathiazocine-8-carboxamide 5,5-dioxide]	< 1000 nM	–
Cc1cc(NC(=O)c2c3c(cn2C)S(=O)(=O)N[C@H]2CN(C(=O)[C@@H]4CCCO4)C[C@H]2CO3)ccc1F [Example E101, (3aR,10aR)—N-(4-fluoro-3-methylphenyl)-7-methyl-2-((S)-tetrahydrofuran-2-carbonyl)-2,3,3a,4,10,10a-hexahydro-1H,7H-dipyrrolo[3,4-b:3′,4′-f][1,4,5]oxathiazocine-8-carboxamide 5,5-dioxide]	< 1000 nM	–
Cc1cc(NC(=O)c2c3c(cn2C)S(=O)(=O)NC2CN(C(=O)C4(C)CCCO4)CC2CO3)ccc1F (stereo not drawn) [Example E148, Trans-N-(4-fluoro-3-methylphenyl)-7-methyl-2-(2-methyltetrahydrofuran-2-carbonyl)-2,3,3a,4,10,10a-hexahydro-1H,7H-dipyrrolo[3,4-b:3′,4′-f][1,4,5]oxathiazocine-8-carboxamide 5,5-dioxide]	< 1000 nM	–
CCOC(=O)N1C[C@H]2COc3c(cn(C)c3C(=O)Nc3ccc(F)c(C)c3)S(=O)(=O)N[C@H]2C1 (single isomer, unassigned) [Example E39]	< 1000 nM	inhibition at 0.05 µM [2]: > 50%
Cc1cc(NC(=O)c2c3c(cn2C)S(=O)(=O)NC2CN(C(=O)c4ncon4)CC2CO3)ccc1F (stereo not drawn) [Example E63, cis-N-(4-fluoro-3-methylphenyl)-7-methyl-2-(1,2,4-oxadiazole-3-carbonyl)-2,3,3a,4,10,10a-hexahydro-1H,7H-dipyrrolo[3,4-b:3′,4′-f][1,4,5]oxathiazocine-8-carboxamide 5,5-dioxide]	< 1000 nM	–
CCOC(=O)N1C[C@H]2NS(=O)(=O)c3cn(C)c(C(=O)Nc4cc(F)c(F)c(F)c4)c3OC[C@@]2(C)C1 (relative stereo) [Example E85, cis-ethyl 7,10a-dimethyl-8-((3,4,5-trifluorophenyl)carbamoyl)-3a,4,10,10a-tetrahydro-1H,7H-dipyrrolo[3,4-b:3′,4′-f][1,4,5]oxathiazocine-2(3H)-carboxylate 5,5-dioxide]	–	inhibition at 0.05 µM [2]: > 50%
Cc1cc(NC(=O)c2c3c(cn2C)S(=O)(=O)NC2CN(C(=O)C4(C)COC4)CCC2CO3)ccc1F (racemic) [Example E141, Trans-N-(4-fluoro-3-methylphenyl)-2-methyl-7-(3-methyloxetane-3-carbonyl)-5,5a,6,7,8,9,9a,10-octahydro-2H-pyrido[3,4-f]pyrrolo[3,4-b][1,4,5]oxathiazocine-1-carboxamide 4,4-dioxide]	–	EC50: < 1000 nM
Cc1cc(NC(=O)c2c3c(cn2C)S(=O)(=O)N[C@@H]2CN(C(=O)c4ccncc4)C[C@@H]2CO3)ccc1F (relative stereo) [Example E55, cis-N-(4-fluoro-3-methylphenyl)-2-isonicotinoyl-7-methyl-2,3,3a,4,10,10a-hexahydro-1H,7H-dipyrrolo[3,4-b:3′,4′-f][1,4,5]oxathiazocine-8-carboxamide 5,5-dioxide]	–	inhibition at 0.1 µM [1]: > 50%
CCOC(=O)N1CC2COc3c(cn(C)c3C(=O)Nc3ccc(F)c(F)c3)S(=O)(=O)NC2C1 (single isomer, unassigned) [Example E38, Ethyl 8-((3,4-difluorophenyl)carbamoyl)-7-methyl-3a,4,10,10a-tetrahydro-1H,7H-dipyrrolo[3,4-b:3′,4′-f][1,4,5]oxathiazocine-2(3H)-carboxylate 5,5-dioxide (Chiral 3aS,10aS or 3aR,10aR - Stereochemistry unknown)]	–	Anti HBV Activity (conc μM) [3]: B (0.1) (HBV inhibition less than 50% at the concentration indicated in the table)
Cc1cc(NC(=O)c2c3c(cn2C)S(=O)(=O)N[C@H]2CN(C(=O)OC(C)(C)C)C[C@@H]2CO3)ccc1F (single isomer, unassigned) [Example E152]	< 1000 nM	–
Ethyl 8-((3-chloro-4-fluorophenyl)carbamoyl)-7-methyl-3a,4,10,10a-tetrahydro-1H,7H-dipyrrolo[3,4-b:3′,4′-f][1,4,5]oxathiazocine-2(3H)-carboxylate 5,5-dioxide (3aS,10aS) [Example E42]	–	Anti HBV Activity (conc μM) [3]: B (0.1) (HBV inhibition less than 50% at the concentration indicated in the table)
CCOC(=O)N1CC2COc3c(cn(C)c3C(=O)Nc3ccc(F)c(C(F)F)c3)S(=O)(=O)NC2C1 (single isomer, unassigned) [Example E43, Ethyl 8-((3-(difluoromethyl)-4-fluorophenyl)carbamoyl)-7-methyl-3a,4,10,10a-tetrahydro-1H,7H-dipyrrolo[3,4-b:3′,4′-f][1,4,5]oxathiazocine-2(3H)-carboxylate 5,5-dioxide (Chiral 3aS,10aS or 3aR,10aR - Stereochemistry unknown)]	–	Anti HBV Activity (conc μM) (0.05 μM, relative to non-treated reference): A (0.05) (HBV inhibition greater than 50% at the concentration indicated in the table); EC50: < 1000 nM
Cc1noc(N2CC3COc4c(cn(C)c4C(=O)Nc4cc(F)c(F)c(F)c4)S(=O)(=O)NC3C2)n1 (stereo not drawn) [Example E83, cis-7-methyl-2-(3-methyl-1,2,4-oxadiazol-5-yl)-N-(3,4,5-trifluorophenyl)-2,3,3a,4,10,10a-hexahydro-1H,7H-dipyrrolo[3,4-b:3′,4′-f][1,4,5]oxathiazocine-8-carboxamide 5,5-dioxide]	< 1000 nM	inhibition at 0.1 µM [1]: > 50%
ethyl 7-methyl-8-((3,4,5-trifluorophenyl)carbamoyl)-3a,4,10,10a-tetrahydro-1H,7H-dipyrrolo[3,4-b:3′,4′-f][1,4,5]oxathiazocine-2(3H)-carboxylate 5,5-dioxide (3aR,10aR) [Example E31]	–	Anti HBV Activity (conc μM) [3]: B (0.1) (HBV inhibition less than 50% at the concentration indicated in the table)
